Data on four compounds can be found in patent publication US20160077079A1, “THE CHILDREN'S HOSPITAL OF PHILADELPHIA” (THE CHILDREN'S HOSPITAL OF PHILADELPHIA, priority 2013, published 2016).

One data set deals with NCI-H716. As to the kind of experiment: GLP-1 secretion in NCI-H716 L-cells, GLP-1 concentration by ELISA. Format: cell-based, human. The note with it: NCI-H716 cells pre-treated 48 hours with inhibitor. The source says: Glucagon-like peptide-1 (GLP-1) has numerous physiological functions, including enhancement of glucose-stimulated insulin secretion, stimulation of β-cell anti-apoptosis and proliferation and inhibition of glucagon secretion, food intake and gastric emptying. These antidiabetic properties of GLP-1 have generated intense interest in the use of this short peptide and its agonists for the treatment of patients with type 2 diabetes. A better understanding of the underlying mechanism of GLP-1 secretion may lead to novel approaches used for the treatment of type 2 diabetes. TCF7L2 is the most strongly associated locus with type 2 diabetes and has been known to bind with the promoter region of the proglucagon gene for many years. […] As such, we investigated if existing PARP-1 inhibitors, previously tested in oncology studies, could have a GLP-1 agonist effect. We leveraged the standard human L-cell line, NCI-H716, for GLP-1 secretion assessment to investigate this possible link. We pre-treated the cells for 48 hours with three different PARP-1 inhibitors, Olaparib, Rucaparib and Iniparib, with or without glucose stimulation (16.8 mM). We measured the resulting GLP-1 concentration using an ELISA kit (Millipore).
In general terms: ELISA stands for enzyme-linked immunosorbent assay.

In data set [1] the test system is SNP rs7903146 region of TCF7L2 (HCT116 nuclear extracts). Nature of the data set: SILAC oligo pull-down quantifying protein binding to the SNP rs7903146 oligonucleotide with and without insulin treatment. Particulars: HCT116 cells, 1 uM insulin for 1 hour. Format: cell-based, human. How it is done:
Human HCT 116 cells were cultured in DMEM (4.5 g/l glucose, 10% FCS, 100 U/mL penicillin and 100 íg/mL streptomycin). For insulin stimulation experiments, cells were treated with 1 uM insulin for 1 hour. For SILAC experiments, Cultures were grown according to standard cell-culture procedures in SILAC-light and SILAC-heavy labeled Dulbecco's Modified Eagle Medium (DMEM, ThermoFisher) supplied with 10% dialyzed fetal bovine serum (FBS), ^13C6-lysine and ^13C6-arginine. Cells were washed by cold phosphate-buffered saline (PBS) and harvested by scraping, centrifugation for 5 min at 5000 rpm at 4° C. 10^8 Cells were lysed in 250 ul low salt buffer (10 mM HEPES, 1.5 mM MgCl2, 10 mM KCl, 0.5% NP-40, proteasome inhibitor, phosphatase inhibitor, 10% glycerol, pH 7.9) by incubation on ice for 20 min with vortex 10 seconds per 5 minutes. The nuclei were separated from cytoplasmic fraction by centrifugation 10,000 rpm for 1 min at 4° C. The nuclei pellets were washed once by cold low salt buffer, harvested by centrifugation. […]
The sample was digested with trypsin and analyzed with nanoLC/MS/MS at the Penn Proteomics Core. […] The data were analyzed with Sequest (ThermoFinnigan, San Jose, Calif.; version SRF v. 5). […] The quantification of the SILAC peaks was performed with ProteolQ with customized modification so that the software can use the zoom scanned SLICA peaks for quantification.
To investigate dynamic binding of Parp-1, ATP-dependent RNA helicase A and Thrap3 for the SNP rs7903146 region, we used stable isotope labeling with amino acids in cell culture (SILAC) (Ong, Blagoev et al. 2002) to quantify the binding affinity changes between with and without insulin treatment.
The heavy cells were isotopically labeled in SILAC medium supplied with ^13C6-lysine and ^13C6-arginine and treated with insulin, while the light cells […] served as a control. […] With this approach, we quantified the relative protein abundances including Parp-1, ATP-dependent RNA helicase A and Thrap3 between treatment and without treatment of insulin.

The mark [2] stands for this setting: absence of glucose, compared with glucose-elevated level.
[3] abbreviates: with glucose stimulation (16.8 mM).

Turning to `NC(=O)c1ccc(I)c([N+](=O)[O-])c1` [Iniparib], the “GLP-1 secretion (GLP-1 concentration by ELISA)” value with NCI-H716 (setting [2]) is “equal or greater level of GLP-1 secretion”; in the data set on NCI-H716 (setting [3]), “elevated further”.
The matching figures for `O=C(c1cc(Cc2n[nH]c(=O)c3ccccc23)ccc1F)N1CCN(C(=O)C2CC2)CC1` [Olaparib]: “equal or greater level of GLP-1 secretion” and “elevated further”.
With `CNCc1ccc(-c2[nH]c3cc(F)cc4c3c2CCNC4=O)cc1` [Rucaparib], the figures for the “GLP-1 secretion (GLP-1 concentration by ELISA)” value in the data set with NCI-H716 (setting [2]) and in the data set with NCI-H716 (setting [3]) were “equal or greater level of GLP-1 secretion” and “elevated further”, respectively.
Take insulin: in data set [1], the “ATP-dependent RNA helicase A binding to rs7903146 oligo, increase upon insulin stimulation” value was 12 fold; the “Parp-1 binding to rs7903146 oligo, up-regulation upon insulin stimulation” value worked out at 20%; the “Thrap3 binding to rs7903146 oligo, increase upon insulin stimulation” value is on record as 7 fold.
